Values belong to the compound of their own block, whether it stands above or below them. Calls of active or inactive are those of the source. The calls are words filed in the database; no cut-off is given here.
Assays:
[1] = biological target: Histone deacetylase; assay: Inhibition of HDAC in human HeLa nuclear extract using fluorogenic substrate incubated for 30 mins by fluorescence based assay; assay type: cell-based
[2] = biological target: Histone deacetylase 1 (Homo sapiens, UniProt Q13547); assay: Inhibition of HDAC1 (unknown origin) using fluorogenic substrate incubated for 30 mins by fluorescence based assay
Sequence of Histone deacetylase 1 (Q13547 whole entry): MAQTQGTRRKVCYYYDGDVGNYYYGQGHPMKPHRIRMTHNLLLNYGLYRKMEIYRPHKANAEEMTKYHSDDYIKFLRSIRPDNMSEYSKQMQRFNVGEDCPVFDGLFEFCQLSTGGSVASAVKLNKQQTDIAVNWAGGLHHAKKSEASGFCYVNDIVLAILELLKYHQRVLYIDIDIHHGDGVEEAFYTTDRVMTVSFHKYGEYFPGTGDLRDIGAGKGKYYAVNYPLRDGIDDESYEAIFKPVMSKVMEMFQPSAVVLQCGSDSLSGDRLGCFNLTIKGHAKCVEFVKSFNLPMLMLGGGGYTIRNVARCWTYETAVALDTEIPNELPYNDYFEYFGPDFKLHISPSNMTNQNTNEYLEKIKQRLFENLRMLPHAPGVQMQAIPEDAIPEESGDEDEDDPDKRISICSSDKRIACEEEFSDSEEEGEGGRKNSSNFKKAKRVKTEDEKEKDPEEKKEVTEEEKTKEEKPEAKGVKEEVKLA

[3] = biological target: Histone deacetylase 2 (Homo sapiens, UniProt Q92769); assay: Inhibition of HDAC2 (unknown origin) using fluorogenic substrate incubated for 30 mins by fluorescence based assay
Sequence of Histone deacetylase 2 (Q92769 whole entry): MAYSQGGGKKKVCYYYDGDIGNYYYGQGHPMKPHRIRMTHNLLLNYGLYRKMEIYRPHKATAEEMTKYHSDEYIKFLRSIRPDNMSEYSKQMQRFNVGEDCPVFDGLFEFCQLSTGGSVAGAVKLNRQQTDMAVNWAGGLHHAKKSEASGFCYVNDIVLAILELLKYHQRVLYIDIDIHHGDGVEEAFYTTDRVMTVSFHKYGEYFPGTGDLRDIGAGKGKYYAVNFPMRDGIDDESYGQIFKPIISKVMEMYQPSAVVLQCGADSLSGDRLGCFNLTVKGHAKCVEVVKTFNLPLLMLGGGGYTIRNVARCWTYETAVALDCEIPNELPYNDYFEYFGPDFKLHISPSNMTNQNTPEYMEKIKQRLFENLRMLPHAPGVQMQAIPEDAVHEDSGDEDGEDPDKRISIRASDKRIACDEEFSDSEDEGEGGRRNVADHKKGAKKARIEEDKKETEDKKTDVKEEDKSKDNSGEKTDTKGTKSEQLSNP

[4] = biological target: T1, Protein deacetylase HDAC6 (Homo sapiens, UniProt Q9UBN7); assay: Inhibition of HDAC6 (unknown origin) using fluorogenic substrate incubated for 30 mins by fluorescence based assay
T1 sequence (Q9UBN7 whole entry): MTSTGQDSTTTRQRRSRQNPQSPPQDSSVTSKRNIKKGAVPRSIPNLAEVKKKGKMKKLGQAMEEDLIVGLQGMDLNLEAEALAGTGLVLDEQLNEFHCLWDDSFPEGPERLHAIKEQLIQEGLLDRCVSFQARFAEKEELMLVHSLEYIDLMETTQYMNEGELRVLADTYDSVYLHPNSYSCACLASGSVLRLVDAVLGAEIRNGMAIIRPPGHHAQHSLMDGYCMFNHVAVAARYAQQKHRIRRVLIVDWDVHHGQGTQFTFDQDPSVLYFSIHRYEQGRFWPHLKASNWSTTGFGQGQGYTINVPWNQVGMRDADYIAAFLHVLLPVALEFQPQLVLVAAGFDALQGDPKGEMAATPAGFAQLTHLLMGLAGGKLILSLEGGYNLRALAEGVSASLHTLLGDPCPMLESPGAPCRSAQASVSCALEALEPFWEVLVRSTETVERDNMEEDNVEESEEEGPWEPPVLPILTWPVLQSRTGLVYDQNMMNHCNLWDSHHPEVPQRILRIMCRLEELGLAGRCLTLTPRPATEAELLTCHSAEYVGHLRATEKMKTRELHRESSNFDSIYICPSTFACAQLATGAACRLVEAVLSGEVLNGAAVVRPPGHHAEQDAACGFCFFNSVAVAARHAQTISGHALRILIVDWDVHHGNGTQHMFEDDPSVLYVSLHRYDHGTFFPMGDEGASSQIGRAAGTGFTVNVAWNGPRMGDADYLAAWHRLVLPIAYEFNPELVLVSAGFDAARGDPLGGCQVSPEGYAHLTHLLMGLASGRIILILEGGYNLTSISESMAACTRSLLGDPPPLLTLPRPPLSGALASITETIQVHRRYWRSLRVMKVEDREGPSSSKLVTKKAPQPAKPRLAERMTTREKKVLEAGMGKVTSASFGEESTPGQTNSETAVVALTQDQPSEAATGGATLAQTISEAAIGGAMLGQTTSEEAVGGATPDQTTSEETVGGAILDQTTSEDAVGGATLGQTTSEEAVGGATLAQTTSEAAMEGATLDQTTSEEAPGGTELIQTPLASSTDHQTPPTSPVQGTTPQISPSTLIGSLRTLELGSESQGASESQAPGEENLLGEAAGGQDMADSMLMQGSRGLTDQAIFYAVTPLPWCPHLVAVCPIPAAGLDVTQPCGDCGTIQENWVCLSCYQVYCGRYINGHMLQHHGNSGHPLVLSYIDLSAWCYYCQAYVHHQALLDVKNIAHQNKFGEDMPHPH

[5] = biological target: T2, Histone deacetylase 8 (Homo sapiens, UniProt Q9BY41); assay: Inhibition of HDAC8 (unknown origin) using fluorogenic substrate incubated for 30 mins by fluorescence based assay
T2 sequence (Q9BY41 whole entry): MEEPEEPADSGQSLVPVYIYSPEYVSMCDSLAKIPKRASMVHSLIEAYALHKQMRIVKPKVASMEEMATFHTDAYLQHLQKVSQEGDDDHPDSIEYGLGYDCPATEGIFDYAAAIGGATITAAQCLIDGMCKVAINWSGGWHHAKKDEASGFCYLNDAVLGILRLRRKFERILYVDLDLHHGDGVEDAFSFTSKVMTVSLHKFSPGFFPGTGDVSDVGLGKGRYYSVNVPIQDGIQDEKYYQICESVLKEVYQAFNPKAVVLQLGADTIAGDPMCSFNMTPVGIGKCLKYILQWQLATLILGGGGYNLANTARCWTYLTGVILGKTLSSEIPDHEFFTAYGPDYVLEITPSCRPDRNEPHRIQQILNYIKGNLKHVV

[6] = test system: PC-3; assay: cells; assay type: functional, cell-based; conditions: Homo sapiens, PC-3, 48 h
Description: Antiproliferative activity against human PC3 cells assessed as inhibition of cell growth measured after 48 hrs by MTT assay

[7] = test system: HepG2; assay: cells; assay type: functional, cell-based; conditions: Homo sapiens, HepG2, 48 h
Description: Antiproliferative activity against human HepG2 cells assessed as inhibition of cell growth measured after 48 hrs by MTT assay

[8] = test system: HEL; assay: cells; assay type: functional, cell-based; conditions: Homo sapiens, 48 h
Description: Antiproliferative activity against HEL cells assessed as inhibition of cell growth measured after 48 hrs by MTT assay

[9] = test system: KG-1; assay: Antiproliferative activity against human KG-1 cells assessed as inhibition of cell growth measured after 48 hrs by MTT assay; assay type: functional, cell-based; conditions: KG-1, 48 h
[10] = test system: K562; assay: cells; assay type: functional, cell-based; conditions: Homo sapiens, K562, 48 h
Description: Antiproliferative activity against human K562 cells assessed as inhibition of cell growth measured after 48 hrs by MTT assay

[11] = test system: B16-F10; assay: Antitumor activity against mouse B16-F10 cells implanted in C57BL/6J mouse assessed as reduction on tumor weight at 60 mg/kg, IG administered for 12 days; assay type: functional, organism-based; conditions: time 12.0 day
[12] = test system: KG-1; assay: Downregulation of SPT16 expression in human KG-1 cells assessed as chromatin damage at 0.5 to […] measured after 24 hrs by Western blot analysis; assay type: functional, cell-based; conditions: dose 0.5-2.5 µM
[13] = test system: KG-1; assay: Downregulation of SSRP-1 expression in human KG-1 cells assessed as chromatin damage at 0.5 to […] measured after 24 hrs by Western blot analysis; assay type: functional, cell-based; conditions: dose 0.5-2.5 µM
[14] = test system: KG-1; assay: Induction of apoptosis in human KG-1 cells assessed as total apoptotic cells at 1 uM measured after 24 hrs by Annexin V-FITC/propidium iodide staining based flow cytometry analysis relative to control; assay type: functional
[15] = test system: B16-F10; assay: Antitumor activity against mouse B16-F10 cells implanted in C57BL/6J mouse assessed as reduction on tumor volume at 60 mg/kg, IG administered for 12 days; assay type: functional, organism-based; conditions: time 12.0 day
[16] = test system: B16-F10; assay: Antitumor activity against mouse B16-F10 cells implanted in C57BL/6J mouse assessed as reduction on tumor size at 60 mg/kg, IG administered for 12 days; assay type: functional, organism-based; conditions: time 12.0 day
[17] = Toxicity in C57BL/6J mouse implanted with mouse B16-F10 cells assessed as effect on body weight at 60 mg/kg, IG administered for 12 days; assay type: organism-based; conditions: in vivo, po, 288 h, time 12 day
[18] = Toxicity in C57BL/6J mouse implanted with mouse B16-F10 cells assessed as lung damage at 60 mg/kg, IG administered for 12 days H and E staining based histopathological analysis; assay type: organism-based; conditions: in vivo, po, 288 h, time 12 day
[19] = Toxicity in C57BL/6J mouse implanted with mouse B16-F10 cells assessed as glomerular structure damage in kidney at 60 mg/kg, IG administered for 12 days H and E staining based histopathological analysis; assay type: organism-based; conditions: in vivo, po, 288 h, time 12 day
[20] = Toxicity in C57BL/6J mouse implanted with mouse B16-F10 cells assessed as liver damage at 60 mg/kg, IG administered for 12 days H and E staining based histopathological analysis; assay type: organism-based; conditions: in vivo, po, 288 h, time 12 day
[21] = Toxicity in C57BL/6J mouse implanted with mouse B16-F10 cells assessed as heart damage at 60 mg/kg, IG administered for 12 days H and E staining based histopathological analysis; assay type: organism-based; conditions: in vivo, po, 288 h, time 12 day
[22] = Toxicity in C57BL/6J mouse implanted with mouse B16-F10 cells assessed as spleen damage at 60 mg/kg, IG administered for 12 days H and E staining based histopathological analysis; assay type: organism-based; conditions: in vivo, po, 288 h, time 12 day
[23] = test system: B16-F10; assay: Antitumor immunity against mouse B16-F10 cells implanted in C57BL/6J mouse assessed as increase in proportion of T cells in spleen by flow cytometry analysis; assay type: functional, cell-based
[24] = test system: B16-F10; assay: Antitumor activity against mouse B16-F10 cells xenografted in C57BL/6J mouse assessed as reduction in tumor heterogeneity at 60 mg/kg, IG administered for 12 days by H and E staining based histopathological analysis; assay type: functional, organism-based; conditions: time 12.0 day
[25] = test system: B16-F10; assay: Antitumor activity against mouse B16-F10 cells xenografted in C57BL/6J mouse assessed as change in tumor cell morphology into normal tissue at 60 mg/kg, IG administered for 12 days by H and E staining based histopathological analysis; assay type: functional, organism-based; conditions: time 12.0 day
[26] = test system: DNA; assay: Binding affinity to nuclear DNA in human HepG2 cells assessed as colocalization of acridine orange-test compound signal at 5 uM by confocal fluorescence microscopic analysis; assay type: functional, cell-based
[27] = test system: Calf thymus DNA; assay: Binding affinity to calf thymus DNA assessed as change in entropy at 500 microM by isothermal titration calorimetric analysis; assay type: nucleic-acid assay; conditions: Bos taurus
[28] = test system: Calf thymus DNA; assay: Binding affinity to calf thymus DNA assessed as increase in absorption at 20 uM by UV-vis absorption spectroscopy; assay type: nucleic-acid assay; conditions: Bos taurus

- IC50 [1]: 304.3 nM
SMILES: O=C(CCCCOc1cccc(-c2nc3ccc(-c4nc5ccccc5[nH]4)cc3[nH]2)c1)NO

- IC50 [1]: 194.4 nM
SMILES: O=C(CCCCOc1cccc(-c2nc3ccccc3[nH]2)c1)NO

- IC50 [1]: 7.3 nM
- IC50 [2]: 47 nM
- IC50 [3]: 81 nM
- IC50 [4]: 23 nM
- IC50 [5]: > 20000 nM
- IC50 [6]: 6900 nM
- IC50 [7]: 16000 nM
- IC50 [8]: 2300 nM
- IC50 [10]: 2900 nM
SMILES: O=C(CCCCCCCOc1cccc(-c2nc3ccc(-c4nc5ccccc5[nH]4)cc3[nH]2)c1)NO
- IC50 [9]: 1600 nM

- IC50 [1]: 27.4 nM
SMILES: O=C(CCCCCOc1cccc(-c2nc3ccc(-c4nc5ccccc5[nH]4)cc3[nH]2)c1)NO

- IC50 [1]: 490.4 nM
SMILES: O=C(CCCOc1cccc(-c2nc3ccccc3[nH]2)c1)NO

- IC50 [1]: 218.8 nM
SMILES: O=C(CCCCOc1ccc(-c2nc3ccc(-c4nc5ccccc5[nH]4)cc3[nH]2)cc1)NO

- IC50 [1]: 7.6 nM
- IC50 [2]: 31 nM
- IC50 [3]: 32 nM
- IC50 [4]: 29 nM
- IC50 [5]: > 20000 nM
- -TdeltaS [27]: 45.3 kcal/mol
- IC50 [6]: 4400 nM
- IC50 [7]: 11000 nM
- IC50 [8]: 1900 nM
- IC50 [10]: 510 nM
- Activity [28]: Active
SMILES: O=C(CCCCCCOc1ccc(-c2nc3ccc(-c4nc5ccccc5[nH]4)cc3[nH]2)cc1)NO
- Activity [26]: Active
- IC50 [9]: 1400 nM

- IC50 [1]: 76 nM
SMILES: O=C(CCCCCOc1ccc(-c2nc3ccccc3[nH]2)cc1)NO

- IC50 [1]: > 1000 nM
SMILES: O=C(COc1cccc(-c2nc3ccc(-c4nc5ccccc5[nH]4)cc3[nH]2)c1)NO

Further lines, the compound ahead of its results:

SMILES: O=C(COc1ccc(-c2nc3ccccc3[nH]2)cc1)NO
- IC50 [1]: 156.7 nM

SMILES: O=C(COc1cccc(-c2nc3ccccc3[nH]2)c1)NO
- IC50 [1]: > 1000 nM

SMILES: O=C(CCCCCOc1ccc(-c2nc3ccc(-c4nc5ccccc5[nH]4)cc3[nH]2)cc1)NO
- IC50 [1]: 43.62 nM

SMILES: CN1CCN(c2ccc3nc(-c4ccc5nc(-c6ccc(O)cc6)[nH]c5c4)[nH]c3c2)CC1
- IC50 [9]: 42000 nM

SMILES: O=C(CCCCCCOc1cccc(-c2nc3ccc(-c4nc5ccccc5[nH]4)cc3[nH]2)c1)NO
- IC50 [1]: 17.9 nM

SMILES: O=C(CCCOc1ccc(-c2nc3ccc(-c4nc5ccccc5[nH]4)cc3[nH]2)cc1)NO
- IC50 [1]: > 1000 nM

SMILES: O=C(CCCCOc1ccc(-c2nc3ccccc3[nH]2)cc1)NO
- IC50 [1]: 189.1 nM

SMILES: O=C(COc1ccc(-c2nc3ccc(-c4nc5ccccc5[nH]4)cc3[nH]2)cc1)NO
- IC50 [1]: > 1000 nM

SMILES: O=C(CCCCCCOc1ccc(-c2nc3ccccc3[nH]2)cc1)NO
- IC50 [1]: 40.3 nM

SMILES: O=C(CCCCCCC(=O)Nc1ccccc1)NO [VORINOSTAT]
- Activity [11]: Active
- IC50 [9]: 70 nM
- Activity [12]: inactive
- Activity [13]: inactive
- Activity [14]: 18.2%
- Activity [15]: Active
- Activity [16]: Active
- Activity [17]: Non-Toxic
- Activity [18]: Non-Toxic
- Activity [19]: Toxic
- Activity [20]: Non-Toxic
- Activity [21]: Non-Toxic
- Activity [22]: Non-Toxic
- Activity [23]: Active
- Activity [24]: Active
- Activity [25]: Active

SMILES: O=C(CCCOc1ccc(-c2nc3ccccc3[nH]2)cc1)NO
- IC50 [1]: 981.3 nM

SMILES: O=C(CCCOc1cccc(-c2nc3ccc(-c4nc5ccccc5[nH]4)cc3[nH]2)c1)NO
- IC50 [1]: 50 nM

SMILES: O=C(CCCCCCCOc1ccc(-c2nc3ccc(-c4nc5ccccc5[nH]4)cc3[nH]2)cc1)NO
- IC50 [1]: 20.1 nM

SMILES: O=C(CCCCCCCOc1ccc(-c2nc3ccccc3[nH]2)cc1)NO
- IC50 [1]: 49.3 nM

SMILES: O=C(CCCCCOc1cccc(-c2nc3ccccc3[nH]2)c1)NO
- IC50 [1]: 118.6 nM

Reference: ChEMBL document CHEMBL5038666, “Discovery of DNA-Targeting HDAC Inhibitors with Potent Antitumor Efficacy In Vivo That Trigger Antitumor Immunity” (J Med Chem, 2022)
